{"source": "paper PMC9785397", "about": "“Exploiting Conserved Quorum Sensing Signals in Streptococcus mutans and Streptococcus pneumoniae” (Microorganisms, 2022)", "type_in_all_cases": "cell-based, Streptococcus mutans", "key": {"[1]": {"test_system": "S. mutans bacteriocin production against P. gingivalis", "test": "Bacteriocin overlay assay, S. mutans spotted on P. gingivalis", "details": "CSP1 20 μM, 16 h, anaerobic", "experimental": "During the formation of complex biofilm such as dental plaque, the ability of S. mutans to compete with other commensal species determines the success of the cariogenesis process. S. mutans uses antibacterial peptides, namely, bacteriocins, to overcome and subvert the composition of dental microbiota. We investigated the production of bacteriocins using the overlay assay. Overnight cultures of S. mitis, S. oralis, S. sanguinis, P. aeruginosa, F. nucleatum, or P. gingivalis were diluted 1:100 in BHI or TS broth and incubated at 37 °C until they reached an OD620 of 0.3. Cultures were added with agar (BD Difco^TM Agar) at the final concentration of 1.5% w/v and transferred in plates. Overnight cultures of S. mutans were diluted 1:100 in BHI and added with peptides (20 μM) or the vehicle with or without CSP1. Culture media were supplemented with agar to reach the final concentration of 0.7% w/v. The solutions were spotted on the surface of agar plates prepared as described above. […]\n(§1) Spots (10 for each experimental group) were acquired and analyzed using NIH Image J software (version 1.53t August 2022, https://imagej.nih.gov/ij/index.html; accessed on 7 September 2022). The appearance of a clear area on the plate (bacterial growth inhibition) was evaluated as indicative of bacteriocin activity. The diameters of the area were measured in a blinded fashion."}, "[2]": {"test_system": "S. mutans bacteriocin production against S. oralis", "test": "Bacteriocin overlay assay, S. mutans spotted on S. oralis", "details": "CSP1 20 μM alone vs vehicle, 16 h, 37 °C, microaerophilic", "experimental": "(§2) During the formation of complex biofilm such as dental plaque, the ability of S. mutans to compete with other commensal species determines the success of the cariogenesis process. S. mutans uses antibacterial peptides, namely, bacteriocins, to overcome and subvert the composition of dental microbiota. We investigated the production of bacteriocins using the overlay assay. Overnight cultures of S. mitis, S. oralis, S. sanguinis, P. aeruginosa, F. nucleatum, or P. gingivalis were diluted 1:100 in BHI or TS broth and incubated at 37 °C until they reached an OD620 of 0.3. Cultures were added with agar (BD Difco^TM Agar) at the final concentration of 1.5% w/v and transferred in plates. Overnight cultures of S. mutans were diluted 1:100 in BHI and added with peptides (20 μM) or the vehicle with or without CSP1. Culture media were supplemented with agar to reach the final concentration of 0.7% w/v. The solutions were spotted on the surface of agar plates prepared as described above. The plates were kept on the benchtop for 30 min, allowing the agar containing S. mutans to solidify, and then incubated at 37 °C for 16 h under microaerophilic or anaerobic conditions, as required.\nas §1"}, "[3]": {"test_system": "bip gene", "test": "qRT-PCR, bip gene expression", "details": "CSP1 20 μM vs vehicle, 2–24 h, maximum at 8 h, qPCR", "experimental": "S. mutans was cultured in BHI supplemented with peptides or the vehicle. Cultures were centrifuged, and total RNA was isolated and purified from the bacterial pellets using the GRS Total RNA Kit—Bacteria (GK16.0100; GRISP Research Solution, Porto, Portugal), following the manufacturer’s instructions. Purified RNA was subjected to DNase I treatment to remove contaminating DNA. The RNA yield and purity were assessed by measuring the absorbance, and only samples with a ratio of 260/280 nm in the 1.8–2 range were used. cDNA was generated using the cDNA RT kit with an RNAse inhibitor (Applied Biosystems; Monza, Milan). Quantitative PCR (qRT-PCR) was performed using SYBR green mixture (iScript One Step RT-PCR kit; Bio-Rad, Segrate, Milan) to determine the transcript levels of genes using the oligonucleotides listed in Table 3. The gyrA gene served as the housekeeping gene."}, "[4]": {"test_system": "S. mutans bacteriocin production against S. mitis", "test": "Bacteriocin overlay assay, S. mutans spotted on S. mitis", "details": "CSP1 20 μM alone vs vehicle, 16 h, 37 °C, microaerophilic", "experimental": "as §2, §1"}}, "data": [{"smiles": "CC[C@H](C)[C@H](NC(=O)[C@H](Cc1ccccc1)NC(=O)[C@H](CC(=O)O)NC(=O)[C@H](CCCNC(=N)N)NC(=O)[C@H](Cc1ccccc1)NC(=O)[C@H](Cc1ccccc1)NC(=O)[C@H](CCCCN)NC(=O)[C@H](CO)NC(=O)[C@H](CC(C)C)NC(=O)[C@H](CCCNC(=N)N)NC(=O)[C@H](CCSC)NC(=O)[C@@H](N)CCC(=O)O)C(=O)N[C@@H](CC(C)C)C(=O)N[C@@H](CCC(N)=O)C(=O)N[C@@H](CCCNC(=N)N)C(=O)N[C@@H](CCCCN)C(=O)N[C@@H](CCCCN)C(=O)O", "note": "[CSP1]", "values": [{"measurement": "Growth inhibition of P. gingivalis by S. mutans stimulated with peptide", "setting": "[1]", "value": "no effects"}, {"measurement": "Growth inhibition of co-cultured S. oralis by S. mutans stimulated with peptide (diameter of clear area)", "setting": "[2]", "value": "significantly inhibited the growth"}, {"measurement": "Expression of bip in S. mutans", "setting": "[3]", "value": "induced the expression"}, {"measurement": "Growth inhibition of co-cultured S. mitis by S. mutans stimulated with peptide (diameter of clear area)", "setting": "[4]", "value": "significantly inhibited the growth"}]}]}
